For twelve compounds, Kd results are on record in ChEMBL document CHEMBL3991601, “The target landscape of clinical kinase drugs” (Science, 2017).

SMILES strings stand for the structures. Calls of active or inactive are those of the source. Cut-off read from the data, not from the text of the source, for most assays here: actives have a measured Kd and inactives only a lower limit.

Experiment [1] addresses Tyrosine-protein kinase ABL2 (Homo sapiens, UniProt P42684).
A further experiment concerns the target Activin receptor type-2B (Homo sapiens, UniProt Q13705).
For the next experiment, the target named is T1, Ephrin type-B receptor 6 (Homo sapiens, UniProt O15197).
T1 sequence (O15197 whole entry): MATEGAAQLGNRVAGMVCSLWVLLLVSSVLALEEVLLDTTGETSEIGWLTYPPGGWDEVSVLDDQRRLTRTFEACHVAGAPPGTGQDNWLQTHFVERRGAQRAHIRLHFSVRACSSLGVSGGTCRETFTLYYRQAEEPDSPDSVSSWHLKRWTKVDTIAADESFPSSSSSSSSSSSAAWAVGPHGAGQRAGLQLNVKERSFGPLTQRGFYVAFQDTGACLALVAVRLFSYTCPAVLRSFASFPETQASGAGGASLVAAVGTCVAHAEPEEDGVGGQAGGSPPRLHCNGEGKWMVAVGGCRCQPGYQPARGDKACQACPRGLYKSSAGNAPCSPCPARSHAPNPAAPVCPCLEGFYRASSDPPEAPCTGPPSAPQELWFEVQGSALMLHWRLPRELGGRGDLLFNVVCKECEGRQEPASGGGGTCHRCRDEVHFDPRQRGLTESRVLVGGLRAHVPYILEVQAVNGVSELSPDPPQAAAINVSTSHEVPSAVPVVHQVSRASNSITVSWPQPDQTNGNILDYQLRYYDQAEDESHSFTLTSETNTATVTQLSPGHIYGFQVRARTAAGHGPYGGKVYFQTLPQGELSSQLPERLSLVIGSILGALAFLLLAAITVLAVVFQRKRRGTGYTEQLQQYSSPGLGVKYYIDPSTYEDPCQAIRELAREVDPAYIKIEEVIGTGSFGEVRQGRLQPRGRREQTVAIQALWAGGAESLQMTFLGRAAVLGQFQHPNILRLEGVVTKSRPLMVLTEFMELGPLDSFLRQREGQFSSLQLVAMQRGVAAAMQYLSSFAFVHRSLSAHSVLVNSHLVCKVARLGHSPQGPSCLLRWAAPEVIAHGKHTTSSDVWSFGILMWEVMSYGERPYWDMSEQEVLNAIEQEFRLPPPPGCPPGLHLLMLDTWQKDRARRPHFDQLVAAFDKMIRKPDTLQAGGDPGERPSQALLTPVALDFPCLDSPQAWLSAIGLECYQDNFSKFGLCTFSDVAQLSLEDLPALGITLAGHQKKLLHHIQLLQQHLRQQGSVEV

Experiment [2] deals with T2, Phenylalanine--tRNA ligase beta subunit (Homo sapiens, UniProt Q9NSD9).
T2 sequence (Q9NSD9 whole entry): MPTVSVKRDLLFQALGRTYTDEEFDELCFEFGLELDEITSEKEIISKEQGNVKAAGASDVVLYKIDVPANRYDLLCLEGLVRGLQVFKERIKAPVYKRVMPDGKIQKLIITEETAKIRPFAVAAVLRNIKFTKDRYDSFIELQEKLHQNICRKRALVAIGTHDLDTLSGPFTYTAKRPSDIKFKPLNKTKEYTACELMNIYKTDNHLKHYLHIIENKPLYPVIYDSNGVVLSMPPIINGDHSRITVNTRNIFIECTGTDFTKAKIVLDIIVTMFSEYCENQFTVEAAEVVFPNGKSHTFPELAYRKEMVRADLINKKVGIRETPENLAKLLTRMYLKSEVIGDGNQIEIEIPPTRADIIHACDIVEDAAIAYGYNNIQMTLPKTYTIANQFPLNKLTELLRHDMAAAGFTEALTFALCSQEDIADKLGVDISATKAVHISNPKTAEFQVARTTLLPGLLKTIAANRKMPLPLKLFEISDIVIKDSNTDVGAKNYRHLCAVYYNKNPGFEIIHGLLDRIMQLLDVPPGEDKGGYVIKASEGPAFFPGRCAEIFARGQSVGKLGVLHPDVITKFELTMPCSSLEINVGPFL

In experiment [3] the target is GTP-binding nuclear protein Ran (Homo sapiens, UniProt P62826).
Experiment [4] concerns the target Ribosomal protein S6 kinase alpha-6 (Homo sapiens, UniProt Q9UK32).
Experiment [5] addresses T3, Tyrosine-protein kinase Tec (Homo sapiens, UniProt P42680).
T3 sequence (P42680 whole entry): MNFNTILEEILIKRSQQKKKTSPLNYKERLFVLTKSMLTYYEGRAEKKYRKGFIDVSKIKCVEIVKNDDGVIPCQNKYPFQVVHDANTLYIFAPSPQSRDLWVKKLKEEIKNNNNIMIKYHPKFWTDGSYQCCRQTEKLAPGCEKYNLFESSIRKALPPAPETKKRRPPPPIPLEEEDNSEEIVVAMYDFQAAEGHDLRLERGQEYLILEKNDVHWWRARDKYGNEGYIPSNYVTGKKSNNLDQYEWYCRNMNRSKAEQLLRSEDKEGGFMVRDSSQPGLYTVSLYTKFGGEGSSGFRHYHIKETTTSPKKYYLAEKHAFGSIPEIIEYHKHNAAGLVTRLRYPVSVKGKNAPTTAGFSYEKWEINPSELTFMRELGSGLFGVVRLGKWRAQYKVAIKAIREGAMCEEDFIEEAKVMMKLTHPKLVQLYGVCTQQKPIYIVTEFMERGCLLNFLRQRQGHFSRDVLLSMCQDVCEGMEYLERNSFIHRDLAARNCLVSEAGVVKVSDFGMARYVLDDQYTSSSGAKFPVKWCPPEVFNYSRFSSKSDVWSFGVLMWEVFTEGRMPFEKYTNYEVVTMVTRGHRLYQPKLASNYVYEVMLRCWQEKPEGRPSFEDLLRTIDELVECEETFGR

For experiment [6], the target named is T4, Uncharacterized protein FLJ45252 (Homo sapiens, UniProt Q6ZSR9).
T4 sequence (Q6ZSR9 whole entry): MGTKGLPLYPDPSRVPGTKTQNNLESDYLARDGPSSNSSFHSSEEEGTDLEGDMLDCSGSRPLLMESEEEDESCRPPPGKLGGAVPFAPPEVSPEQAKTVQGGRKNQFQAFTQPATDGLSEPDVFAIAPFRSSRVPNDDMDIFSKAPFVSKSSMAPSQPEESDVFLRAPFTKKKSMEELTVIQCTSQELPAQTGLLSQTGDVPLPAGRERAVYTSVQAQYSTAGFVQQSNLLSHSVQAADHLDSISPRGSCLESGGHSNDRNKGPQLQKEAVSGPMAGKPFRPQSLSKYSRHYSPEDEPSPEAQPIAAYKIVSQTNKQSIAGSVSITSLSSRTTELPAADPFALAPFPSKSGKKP
Conditions: read-out: Kd apparent; k-562, colo 205, sk-n-be(2) and mv-4-11.
Note: in the data inactive means no Kd found up to 30 µM.

Ribosomal protein S6 kinase alpha-6, sequence (Q9UK32 whole entry): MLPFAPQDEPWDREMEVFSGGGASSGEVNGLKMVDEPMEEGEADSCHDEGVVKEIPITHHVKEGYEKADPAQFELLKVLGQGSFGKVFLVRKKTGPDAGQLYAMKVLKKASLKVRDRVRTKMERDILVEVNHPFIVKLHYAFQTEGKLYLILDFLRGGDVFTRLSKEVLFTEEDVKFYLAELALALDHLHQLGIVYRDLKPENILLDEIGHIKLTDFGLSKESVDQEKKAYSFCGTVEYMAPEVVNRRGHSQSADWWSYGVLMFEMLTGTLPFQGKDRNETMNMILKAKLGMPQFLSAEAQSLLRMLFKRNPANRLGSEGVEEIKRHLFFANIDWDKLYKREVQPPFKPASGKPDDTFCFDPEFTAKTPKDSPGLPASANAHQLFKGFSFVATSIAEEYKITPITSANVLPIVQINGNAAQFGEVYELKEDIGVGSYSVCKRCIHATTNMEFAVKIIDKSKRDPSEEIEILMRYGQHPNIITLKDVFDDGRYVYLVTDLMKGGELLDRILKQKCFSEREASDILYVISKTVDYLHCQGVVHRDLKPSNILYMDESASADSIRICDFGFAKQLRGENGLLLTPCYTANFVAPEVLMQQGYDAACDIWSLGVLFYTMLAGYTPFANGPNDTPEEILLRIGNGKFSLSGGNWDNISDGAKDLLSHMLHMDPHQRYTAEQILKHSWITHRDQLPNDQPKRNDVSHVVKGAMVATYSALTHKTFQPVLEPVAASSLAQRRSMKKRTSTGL
Tyrosine-protein kinase ABL2, sequence (P42684 whole entry): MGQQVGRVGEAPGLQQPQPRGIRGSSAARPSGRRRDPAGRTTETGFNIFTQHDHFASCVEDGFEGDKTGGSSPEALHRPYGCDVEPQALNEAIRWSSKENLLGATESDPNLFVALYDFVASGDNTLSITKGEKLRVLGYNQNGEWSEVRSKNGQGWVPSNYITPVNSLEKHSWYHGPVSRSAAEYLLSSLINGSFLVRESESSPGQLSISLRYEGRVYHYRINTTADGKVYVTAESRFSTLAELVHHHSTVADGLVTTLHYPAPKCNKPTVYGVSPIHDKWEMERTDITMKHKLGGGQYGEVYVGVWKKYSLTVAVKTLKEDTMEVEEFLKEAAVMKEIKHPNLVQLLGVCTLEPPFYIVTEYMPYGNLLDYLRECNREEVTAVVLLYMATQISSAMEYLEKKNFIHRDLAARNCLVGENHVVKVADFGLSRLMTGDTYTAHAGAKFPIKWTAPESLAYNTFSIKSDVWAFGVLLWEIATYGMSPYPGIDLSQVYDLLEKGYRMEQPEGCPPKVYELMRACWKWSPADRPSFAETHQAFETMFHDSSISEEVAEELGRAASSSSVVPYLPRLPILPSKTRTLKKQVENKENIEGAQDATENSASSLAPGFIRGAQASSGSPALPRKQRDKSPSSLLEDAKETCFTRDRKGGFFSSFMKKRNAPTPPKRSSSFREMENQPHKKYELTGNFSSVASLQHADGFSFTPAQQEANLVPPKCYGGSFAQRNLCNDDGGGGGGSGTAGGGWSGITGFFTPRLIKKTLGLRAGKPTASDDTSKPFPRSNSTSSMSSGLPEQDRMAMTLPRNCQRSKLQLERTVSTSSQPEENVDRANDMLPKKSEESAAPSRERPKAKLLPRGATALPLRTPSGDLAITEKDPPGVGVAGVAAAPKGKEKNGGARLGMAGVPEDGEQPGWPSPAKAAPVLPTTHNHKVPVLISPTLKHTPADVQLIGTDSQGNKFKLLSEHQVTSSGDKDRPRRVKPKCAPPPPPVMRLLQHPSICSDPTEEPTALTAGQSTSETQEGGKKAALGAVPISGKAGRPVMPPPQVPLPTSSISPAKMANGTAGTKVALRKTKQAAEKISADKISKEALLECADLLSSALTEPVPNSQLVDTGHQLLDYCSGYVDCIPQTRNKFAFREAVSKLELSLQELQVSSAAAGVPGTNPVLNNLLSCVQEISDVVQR
Activin receptor type-2B, sequence (Q13705 whole entry): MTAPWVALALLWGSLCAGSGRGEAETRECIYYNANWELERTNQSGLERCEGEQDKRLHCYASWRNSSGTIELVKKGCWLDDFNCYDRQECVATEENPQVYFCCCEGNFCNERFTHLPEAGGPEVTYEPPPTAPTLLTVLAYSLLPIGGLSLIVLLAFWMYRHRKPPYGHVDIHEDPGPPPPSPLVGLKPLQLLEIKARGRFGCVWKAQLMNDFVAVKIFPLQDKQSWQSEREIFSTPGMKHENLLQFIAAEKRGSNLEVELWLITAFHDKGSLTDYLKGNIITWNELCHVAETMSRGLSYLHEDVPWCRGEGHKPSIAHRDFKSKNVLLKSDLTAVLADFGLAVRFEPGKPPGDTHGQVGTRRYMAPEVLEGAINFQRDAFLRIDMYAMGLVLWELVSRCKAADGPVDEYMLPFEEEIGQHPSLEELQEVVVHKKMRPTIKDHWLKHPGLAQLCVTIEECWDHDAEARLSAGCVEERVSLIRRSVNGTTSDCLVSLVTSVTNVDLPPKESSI

As to `Cc1cc(C(=O)Nc2cc(Oc3ccc4nc(NC(=O)C5CC5)cn4n3)ccc2C)n(C)n1` [TAK-593], the Kd in experiment [1] is 4.06 µM (active); at Activin receptor type-2B, > 30 µM (inactive); at Ephrin type-B receptor 6, > 30 µM (inactive); in experiment [2], > 30 µM (inactive); in experiment [3] it was > 30 µM (inactive); in experiment [4], > 30 µM (inactive). In addition, the figures for the Kd in experiment [5] and in experiment [6] were > 30 µM (inactive) and 0.869 µM (active), respectively.
In the case of `C=CCn1c(=O)c2cnc(Nc3ccc(N4CCN(C)CC4)cc3)nc2n1-c1cccc(C(C)(C)O)n1` [ADAVOSERTIB], the Kd in experiment [1] is > 30 µM (inactive); at Activin receptor type-2B it was > 30 µM (inactive); on Ephrin type-B receptor 6, 0.337 µM (active); in experiment [2] it was > 30 µM (inactive); in experiment [3], > 30 µM (inactive); in experiment [4] it was > 30 µM (inactive). The Kd in experiment [5] and in experiment [6] was > 30 µM (inactive) throughout.
Consider `CCc1nc(C(N)=O)c(Nc2ccc(N3CCC(N4CCN(C)CC4)CC3)c(OC)c2)nc1NC1CCOCC1` [GILTERITINIB], for which the Kd is > 30 µM (inactive) in experiment [1]; > 30 µM (inactive) at Activin receptor type-2B; 0.241 µM on Ephrin type-B receptor 6; > 30 µM (inactive) in experiment [2]; 0.759 µM in experiment [3]; > 30 µM (inactive) in experiment [4]. Moreover, the Kd is > 30 µM (inactive) in experiment [5] and 0.011 µM (active) in experiment [6].
For the compound `NC[C@@](O)(c1ccc(Cl)cc1)c1ccc(-c2cn[nH]c2)cc1` [AT-13148], the Kd (in experiment [1]; at Activin receptor type-2B; on Ephrin type-B receptor 6; in experiment [2]; in experiment [3]; in experiment [4]) was > 30 µM (inactive) in each case. Besides, the Kd in experiment [5] and in experiment [6] was > 30 µM (inactive) each time.
With `COc1cc(F)c(F)c(Nc2ccc(I)cc2F)c1NS(=O)(=O)C1(C[C@H](O)CO)CC1` [REFAMETINIB], the Kd (in experiment [1]; at Activin receptor type-2B; on Ephrin type-B receptor 6; in experiment [2]; in experiment [3]; in experiment [4]) was > 30 µM (inactive) in each case. Further, the Kd in experiment [5] and in experiment [6] was > 30 µM (inactive) each time.
As to `COc1cc2ncnc3c2cc1OCCCCCN(C)Cc1ccc(Br)cc1N3` [JNJ-26483327], the Kd (in experiment [1]; on Activin receptor type-2B; at Ephrin type-B receptor 6; in experiment [2]; in experiment [3]; in experiment [4]) was > 30 µM (inactive) each time. The Kd in experiment [5] and in experiment [6] was > 30 µM (inactive) in each case.
As for `C=CC(=O)Nc1cccc(Nc2nc(Nc3ccc(N4CCN(C(C)=O)CC4)cc3OC)ncc2C(F)(F)F)c1` [ROCILETINIB], the Kd (in experiment [1]; on Activin receptor type-2B; at Ephrin type-B receptor 6; in experiment [2]; in experiment [3]; in experiment [4]) was > 30 µM (inactive) each time. The Kd is 0.288 µM (active) in experiment [5] and > 30 µM (inactive) in experiment [6].
As for `CCc1cc2c(cc1N1CCC(N3CCOCC3)CC1)C(C)(C)c1[nH]c3cc(C#N)ccc3c1C2=O` [ALECTINIB], the Kd (in experiment [1]; on Activin receptor type-2B; at Ephrin type-B receptor 6; in experiment [2]; in experiment [3]; in experiment [4]) was > 30 µM (inactive) in each case. Further, the Kd in experiment [5] and in experiment [6] was > 30 µM (inactive) each time.
Take `COc1cc2ncnc(Nc3ccc(F)c(Cl)c3)c2cc1NC(=O)/C=C/CN1CCCCC1` [DACOMITINIB ANHYDROUS]: the Kd (in experiment [1]; on Activin receptor type-2B; on Ephrin type-B receptor 6; in experiment [2]; in experiment [3]; in experiment [4]) was > 30 µM (inactive) in each case. Besides, the Kd in experiment [5] and in experiment [6] was > 30 µM (inactive) each time.
Take `Cc1c(NC(=O)OC[C@@H]2COCCN2)cn2ncnc(Nc3ccc4c(cnn4Cc4cccc(F)c4)c3)c12` [AC-480]: the Kd (in experiment [1]; on Activin receptor type-2B; at Ephrin type-B receptor 6; in experiment [2]; in experiment [3]; in experiment [4]) was > 30 µM (inactive) each time. The Kd in experiment [5] and in experiment [6] was > 30 µM (inactive) in each case.
For `Cc1cc(-c2cc(OC(=O)c3ccccc3)ccc2Cl)cc2nnc(Nc3ccc(OCCN4CCCC4)cc3)nc12` [TG100-801], the Kd in experiment [1] is 1.03 µM (active); on Activin receptor type-2B it was 0.419 µM; on Ephrin type-B receptor 6, > 30 µM (inactive); in experiment [2], > 30 µM (inactive); in experiment [3] it was > 30 µM (inactive); in experiment [4], > 30 µM (inactive). Moreover, the Kd in experiment [5] and in experiment [6] was > 30 µM (inactive) throughout.
With `COc1cc2nccc(Oc3ccc(NC(=O)C4(C(=O)Nc5ccc(F)cc5)CC4)cc3)c2cc1OC` [CABOZANTINIB], the Kd was 0.918 µM (active) in experiment [1]; > 30 µM (inactive) on Activin receptor type-2B; > 30 µM (inactive) on Ephrin type-B receptor 6; > 30 µM (inactive) in experiment [2]; > 30 µM (inactive) in experiment [3]; > 30 µM (inactive) in experiment [4]. The Kd in experiment [5] and in experiment [6] was > 30 µM (inactive) throughout.
